The supplement of paper PMC10307832

Legend:
Assay in all cases: relative viability (nuclei count vs DMSO), 5 days (fraction); higher = more cells survive
[1] = system: LXF-289
Method in brief: (§1)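 Five library-drug doses in √10 steps were combined with a fixed anchor-drug dose, or a single drug was given alone, by pin tool to lung cancer cell lines in 1536-well plates the day after seeding. Nuclei were stained and counted after 5 days. Relative viability is the nuclei count in treated wells over that in vehicle wells, taken as the median of duplicate plates.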

[2] = system: HARA
Method in brief: as §1

[3] = system: H3255
Method in brief: as §1

[4] = system: NCI-H2405
Method in brief: as §1

[5] = system: NCI-H1437
Method in brief: as §1

[6] = system: NCI-H23
Method in brief: as §1

[7] = system: NCI-H2085
Method in brief: as §1

[8] = system: BEN
Method in brief: as §1

[9] = system: COR-L 105
Method in brief: as §1

[10] = system: HCC-827
Method in brief: as §1

[11] = system: NCI-H2228
Method in brief: as §1

[12] = system: LC-2-ad
Method in brief: as §1

[13] = system: NCI-H322M
Method in brief: as §1

[14] = system: CAL-12T
Method in brief: as §1

[15] = system: LU99A
Method in brief: as §1

[16] = system: NCI-H1792
Method in brief: as §1

[17] = system: 201T
Method in brief: as §1

[18] = system: UMC-11
Method in brief: as §1

[19] = system: RERF-LC-KJ
Method in brief: as §1

[20] = system: HCC-15
Method in brief: as §1

[21] = system: NCI-H1651
Method in brief: as §1

[22] = system: LCLC-103H
Method in brief: as §1

[23] = system: LK-2
Method in brief: as §1

Compound: O=C(O)CCCCC(CCSCc1ccccc1)SCc1ccccc1 (configuration not stated) [CPI-613] + Cc1nc(Nc2ncc(C(=O)Nc3c(C)cccc3Cl)s2)cc(N2CCN(CCO)CC2)n1 [Dasatinib] (partner 0.075 µM)
- relative viability ([1]; first compound 5 µM): 0.208
- relative viability ([1]; first compound 15.81 µM): 0.206
- relative viability ([1]; first compound 50 µM): 0.235
- relative viability ([1]; first compound 158.11 µM): 0.203
- relative viability ([1]; first compound 500 µM): 0.0464
- relative viability ([2]; first compound 15.81 µM): 0.23
- relative viability ([2]; first compound 50 µM): 0.309
- relative viability ([2]; first compound 158.11 µM): 0.149
- relative viability ([2]; first compound 500 µM): 0.0196
- relative viability ([3]; first compound 5 µM): 0.408
- relative viability ([3]; first compound 15.81 µM): 0.307
- relative viability ([3]; first compound 50 µM): 0.346
- relative viability ([3]; first compound 500 µM): 0.335
- relative viability ([4]; first compound 5 µM): 0.205
- relative viability ([4]; first compound 15.81 µM): 0.176
- relative viability ([4]; first compound 50 µM): 0.203
- relative viability ([4]; first compound 158.11 µM): 0.201
- relative viability ([4]; first compound 500 µM): 0.209
- relative viability ([5]; first compound 5 µM): 0.388
- relative viability ([5]; first compound 15.81 µM): 0.314
- relative viability ([5]; first compound 50 µM): 0.381
- relative viability ([5]; first compound 500 µM): 0.304
- relative viability ([6]; first compound 5 µM): 0.725
- relative viability ([6]; first compound 15.81 µM): 0.635
- relative viability ([6]; first compound 50 µM): 0.621
- relative viability ([6]; first compound 158.11 µM): 0.293
- relative viability ([6]; first compound 500 µM): 0.017
- relative viability ([7]; first compound 5 µM): 0.267
- relative viability ([7]; first compound 15.81 µM): 0.266
- relative viability ([7]; first compound 50 µM): 0.255
- relative viability ([7]; first compound 158.11 µM): 0.242
- relative viability ([7]; first compound 500 µM): 0.257
- relative viability ([8]; first compound 5 µM): 0.341
- relative viability ([8]; first compound 15.81 µM): 0.293
- relative viability ([8]; first compound 50 µM): 0.293
- relative viability ([8]; first compound 158.11 µM): 0.267
- relative viability ([8]; first compound 500 µM): 0.279
- relative viability ([9]; first compound 5 µM): 0.386
- relative viability ([9]; first compound 15.81 µM): 0.285
- relative viability ([9]; first compound 50 µM): 0.307
- relative viability ([9]; first compound 158.11 µM): 0.278
- relative viability ([9]; first compound 500 µM): 0.131
- relative viability ([10]; first compound 5 µM): 0.262
- relative viability ([10]; first compound 15.81 µM): 0.295
- relative viability ([10]; first compound 50 µM): 0.405
- relative viability ([10]; first compound 158.11 µM): 0.315
- relative viability ([10]; first compound 500 µM): 0.353
- relative viability ([11]; first compound 5 µM): 0.559
- relative viability ([11]; first compound 15.81 µM): 0.469
- relative viability ([11]; first compound 50 µM): 0.437
- relative viability ([11]; first compound 158.11 µM): 0.231
- relative viability ([11]; first compound 500 µM): 0.0527
- relative viability ([12]; first compound 5 µM): 0.488
- relative viability ([12]; first compound 15.81 µM): 0.51
- relative viability ([12]; first compound 50 µM): 0.573
- relative viability ([12]; first compound 158.11 µM): 0.259
- relative viability ([12]; first compound 500 µM): 0.0544
- relative viability ([13]; first compound 5 µM): 0.248
- relative viability ([13]; first compound 15.81 µM): 0.245
- relative viability ([13]; first compound 50 µM): 0.257
- relative viability ([13]; first compound 158.11 µM): 0.23
- relative viability ([13]; first compound 500 µM): 0.0545
- relative viability ([14]; first compound 5 µM): 0.398
- relative viability ([14]; first compound 15.81 µM): 0.454
- relative viability ([14]; first compound 50 µM): 0.263
- relative viability ([14]; first compound 158.11 µM): 0.0331
- relative viability ([14]; first compound 500 µM): 0.0093
- relative viability ([15]; first compound 5 µM): 0.551
- relative viability ([15]; first compound 15.81 µM): 0.577
- relative viability ([15]; first compound 50 µM): 0.424
- relative viability ([15]; first compound 158.11 µM): 0.426
- relative viability ([15]; first compound 500 µM): 0.0381
- relative viability ([16]; first compound 5 µM): 0.772
- relative viability ([16]; first compound 15.81 µM): 0.748
- relative viability ([16]; first compound 50 µM): 0.789
- relative viability ([16]; first compound 158.11 µM): 0.669
- relative viability ([16]; first compound 500 µM): 0.766
- relative viability ([17]; first compound 5 µM): 0.553
- relative viability ([17]; first compound 15.81 µM): 0.527
- relative viability ([17]; first compound 50 µM): 0.488
- relative viability ([17]; first compound 158.11 µM): 0.352
- relative viability ([17]; first compound 500 µM): 0.303
- relative viability ([18]; first compound 5 µM): 0.444
- relative viability ([18]; first compound 15.81 µM): 0.417
- relative viability ([18]; first compound 50 µM): 0.482
- relative viability ([18]; first compound 158.11 µM): 0.144
- relative viability ([18]; first compound 500 µM): 0.0883
- relative viability ([19]; first compound 5 µM): 0.784
- relative viability ([19]; first compound 15.81 µM): 0.754
- relative viability ([19]; first compound 50 µM): 0.766
- relative viability ([19]; first compound 158.11 µM): 0.198
- relative viability ([19]; first compound 500 µM): 0.123
- relative viability ([20]; first compound 5 µM): 0.56
- relative viability ([20]; first compound 15.81 µM): 0.529
- relative viability ([20]; first compound 50 µM): 0.552
- relative viability ([20]; first compound 158.11 µM): 0.308
- relative viability ([20]; first compound 500 µM): 0.0395
- relative viability ([21]; first compound 5 µM): 0.348
- relative viability ([21]; first compound 15.81 µM): 0.387
- relative viability ([21]; first compound 50 µM): 0.416
- relative viability ([21]; first compound 158.11 µM): 0.282
- relative viability ([21]; first compound 500 µM): 0.123
- relative viability ([22]; first compound 5 µM): 0.463
- relative viability ([22]; first compound 15.81 µM): 0.472
- relative viability ([22]; first compound 50 µM): 0.41
- relative viability ([22]; first compound 158.11 µM): 0.422
- relative viability ([22]; first compound 500 µM): 0.271
- relative viability ([23]; first compound 5 µM): 0.241
- relative viability ([23]; first compound 15.81 µM): 0.279
- relative viability ([23]; first compound 50 µM): 0.252
- relative viability ([23]; first compound 158.11 µM): 0.254
- relative viability ([23]; first compound 500 µM): 0.195
